Assay results: patent US8410282B2, “Compounds as adenosine A1 receptor antagonists” (Palobiofarma, S.L., priority 2007, dated 2013)

Columns and labels:
hA1 receptors = biological target: T1, hA1 receptors (Homo sapiens, UniProt P30542); test: Adenosine receptor subtype competition radioligand binding assay, hA1; conditions: membranes from hA1 receptors transfected to CHO cells, [3H]-DPCPX as radioligand, 90 min at 25° C.; read-out: A1 Antagonism (Ki nM)
T1 construct: purchased Receptor Biology, Inc. (USA); host or cells: CHO cells
T1 sequence (P30542 1-326): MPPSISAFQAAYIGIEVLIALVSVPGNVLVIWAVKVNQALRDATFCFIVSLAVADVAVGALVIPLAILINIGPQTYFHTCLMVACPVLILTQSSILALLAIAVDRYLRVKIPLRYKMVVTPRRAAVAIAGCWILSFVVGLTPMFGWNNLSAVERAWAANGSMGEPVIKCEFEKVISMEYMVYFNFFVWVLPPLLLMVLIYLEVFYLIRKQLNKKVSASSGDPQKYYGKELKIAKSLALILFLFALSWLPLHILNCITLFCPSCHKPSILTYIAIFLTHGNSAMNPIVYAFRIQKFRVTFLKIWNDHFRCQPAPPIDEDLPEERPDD
Description: (§1) Pharmacological Activity Adenosine Receptor Subtype Competition Radioligand Binding Assay
(§2) Human membranes from recombinant adenosine receptors were purchased from Receptor Biology, Inc. (USA)
Competition assays were carried out by incubation of membranes from hA1 receptors transfected to CHO cells, [^3H]-DPCPX as radioligand, buffer (HEPES 20 mM (pH=7.4), 10 mM MgCl2, 100 mM NaCl, 2 units/ml adenosine deaminase), and unlabelled ligand in a total volume of 0.2 ml for 90 min at 25° C. R-PIA was used to determinate non-specific binding. Filter over Schleicher & Schuell GF/52 filters (pre-soaked 0.5% polyethylenimine) in a Brandel cell harvester. Unbound radioligand was removed with HEPES 30 mM (3×250 μl), NaCl (100 mM) and MgCl2 (10 mM).

hA2a receptors = biological target: T2, hA2a receptors (Homo sapiens, UniProt P29274); test: Adenosine receptor subtype competition radioligand binding assay, hA2a; conditions: membranes from hA2a receptors transfected to HEK293 cells, [3H]ZM241385 as radioligand, 90 min at 25° C.; read-out: A2a Antagonism (Ki nM)
T2 construct: purchased Receptor Biology, Inc. (USA); host or cells: HEK293 cells
T2 sequence (P29274 whole entry): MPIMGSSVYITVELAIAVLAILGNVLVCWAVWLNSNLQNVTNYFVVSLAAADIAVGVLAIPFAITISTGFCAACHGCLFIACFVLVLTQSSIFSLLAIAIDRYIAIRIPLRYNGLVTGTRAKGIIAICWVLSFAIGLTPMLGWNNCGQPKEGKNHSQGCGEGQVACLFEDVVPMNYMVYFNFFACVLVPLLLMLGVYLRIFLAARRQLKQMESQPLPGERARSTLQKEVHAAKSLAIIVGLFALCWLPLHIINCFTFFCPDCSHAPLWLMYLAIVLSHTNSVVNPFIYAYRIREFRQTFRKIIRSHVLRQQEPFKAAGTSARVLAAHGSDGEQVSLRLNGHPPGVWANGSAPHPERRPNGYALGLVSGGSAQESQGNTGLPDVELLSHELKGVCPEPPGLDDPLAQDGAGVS
Description: as §1, §2
Competition assays were carried out by incubation of membranes from hA2a receptors transfected to HEK293 cells, [^3H]ZM241385 as radioligand, buffer (50 mM Tris-HCl (pH=7.4), 10 mM MgCl2, 1 mM […], 2 units/ml adenosine deaminase), and unlabelled ligand in a total volume of 0.2 ml for 90 min at 25° C. NECA was used to determinate non-specific binding. Filter over Schleicher & Schuell GF/52 filters (pre-soaked 0.5% polyethylenimine) in a Brandel cell harvester. Unbound radioligand was removed with 3×3 ml ice-cold 50 mM Tris-HCl (pH=7.4), 0.9% NaCl.

Row | SMILES | Ki (hA1 receptors) | Ki (hA2a receptors)
1 | CC(C)(CCC(=O)O)C(=O)Nc1nc(-c2cccc(F)c2)c(C#N)s1 [Example 68, 4-[5-cyano-4-(3-fluorophenyl)-1,3-thiazol-2-ylcarbamoyl]-4-methylpentanoic Acid] | 51 nM | > 4000 nM
2 | N#Cc1sc(NC(=O)[C@@H]2CCC[C@H](C(=O)O)C2)nc1-c1cc(F)cc(F)c1 (relative stereo) [Example 114, Cis-3-[5-cyano-4-(3,5-difluorophenyl)-1,3-thiazol-2-ylcarbamoyl]cyclohexanecarboxylic Acid] | 32 nM | > 10000 nM
3 | N#Cc1sc(NC(=O)[C@@H]2CC[C@H](C(=O)O)C2)nc1-c1ccccc1F (relative stereo) [Example 50, Cis-3-[5-cyano-4-(2-fluorophenyl)-1,3-thiazol-2-ylcarbamoyl]cyclopentanecarboxylic Acid] | 16 nM | > 1300 nM
4 | CC(C)(CCC(=O)O)C(=O)Nc1nc(-c2ccccc2)c(C#N)s1 [Example 2, 4-(5-cyano-4-phenyl-1,3-thiazol-2-ylcarbamoyl)-4-methylpentanoic Acid] | 43 nM | > 10000 nM
5 | N#Cc1sc(NC(=O)[C@H]2CC[C@@H](C(=O)O)CC2)nc1-c1ccccc1 [Example 10, Cis-4-(5-cyano-4-phenyl-1,3-thiazol-2-ylcarbamoyl)cyclohexane Carboxylic Acid] | 7 nM | 1080 nM
6 | N#Cc1sc(NC(=O)[C@@H]2CCC[C@H](C(=O)O)C2)nc1-c1ccccc1Cl (relative stereo) [Example 26, Cis-3-[4-(2-chlorophenyl)-5-cyano-1,3-thiazol-2-ylcarbamoyl]cyclohexanecarboxylic Acid] | 31 nM | 3670 nM
7 | N#Cc1sc(NC(=O)[C@H]2CC[C@H](C(=O)O)CC2)nc1-c1cccc(Cl)c1 [Example 36, trans-4-[4-(3-chlorophenyl)-5-cyano-1,3-thiazol-2-ylcarbamoyl]cyclohexanecarboxylic Acid] | 25 nM | 487 nM
8 | N#Cc1sc(NC(=O)[C@H]2CC[C@@H](C(=O)O)CC2)nc1-c1cccc(F)c1 [Example 77, Cis-4-[5-cyano-4-(3-fluorophenyl)-1,3-thiazol-2-ylcarbamoyl]cyclohexanecarboxylic Acid] | 6 nM | 776 nM
9 | N#Cc1sc(NC(=O)C2CCC(C(=O)O)C2)nc1-c1ccccc1 (stereo not shown) [Example 5, 3-(5-cyano-4-phenyl-1,3-thiazol-2-ylcarbamoyl)cyclopentane Carboxylic Acid] | 6.4 nM | 940 nM
10 | N#Cc1sc(NC(=O)[C@@H]2CCC[C@H](C(=O)O)C2)nc1-c1ccccc1 (relative stereo) [Example 8, Cis-3-(5-cyano-4-phenyl-1,3-thiazol-2-ylcarbamoyl)cyclohexane Carboxylic Acid] | 17 nM | > 1200 nM
11 | N#Cc1sc(NC(=O)[C@@H]2CCC[C@H](C(=O)O)C2)nc1-c1cccc(F)c1 (relative stereo) [Example 75, Cis-3-[5-cyano-4-(3-fluorophenyl)-1,3-thiazol-2-ylcarbamoyl]cyclohexanecarboxylic Acid] | 14 nM | 1840 nM
